# Results published in ChEMBL document CHEMBL5625161, “Pharmacological activity and mechanism of pyrazines” (Eur J Med Chem, 2023).
# Legend:
# PC-9/ER = experiment: Antiproliferative activity against human PC-9/ER cells assessed as inhibition of cell growth incubated for 48 hrs by MTT assay; format: functional
# PC-9 = experiment: Antiproliferative activity against human PC-9 cells assessed as reduction in cell growth incubated for 72 hrs by MTT assay; format: functional, cell-based; conditions: PC-9, 72 h
# SNB-75 = experiment: Cytotoxicity against human SNB-75 cells assessed as cell growth inhibition at 10 uM measured after 48 hrs by SRB assay relative to control; format: functional; design: scale not given: the % may be the effect or the level left
# A549 [1] = experiment: Cytotoxicity against human A549 cells assessed as cell growth inhibition at 10 uM measured after 48 hrs by SRB assay relative to control; format: functional; design: scale not given: the % may be the effect or the level left
# PC-3 = experiment: Cytotoxicity against human PC-3 cells assessed as cell growth inhibition at 10 uM measured after 48 hrs by SRB assay relative to control; format: functional; design: scale not given: the % may be the effect or the level left
# LOX IMVI = experiment: Cytotoxicity against human LOX IMVI cells assessed as cell growth inhibition at 10 uM measured after 48 hrs by SRB assay relative to control; format: functional; design: scale not given: the % may be the effect or the level left
# MDA-MB-231 [2] = experiment: Cytotoxicity against human MDA-MB-231 cells assessed as cell growth inhibition at 10 uM measured after 48 hrs by SRB assay relative to control; format: functional; design: scale not given: the % may be the effect or the level left
# MCF7 [3] = experiment: Cytotoxicity against human MCF7 cells assessed as reduction in cell growth measured after 48 hrs by MTT assay; format: functional, cell-based; conditions: MCF7, 48 h
# [4] = Cytotoxicity against human MRC5 cells assessed as reduction in cell growth measured after 48 hrs by MTT assay; format: toxicity, cell-based
# [5] = target: Aldo-keto reductase family 1 member B1 (Homo sapiens, UniProt P15121); experiment: Inhibition of human recombinant ALDR1
# MCF7 [6] = experiment: Cytotoxicity against human MCF7 cells assessed as cell growth inhibition measured after 48 hrs by MTT assay; format: functional, cell-based; conditions: MCF7, 48 h
# K562 = experiment: Cytotoxicity against human K562 cells assessed as cell growth inhibition measured after 48 hrs by MTT assay; format: functional, cell-based; conditions: K562, 48 h
# HCT-116 [7] = experiment: Cytotoxicity against human HCT-116 cells assessed as cell growth inhibition measured after 48 hrs by MTT assay; format: functional, cell-based; conditions: HCT-116, 48 h
# [8] = Cytotoxicity against mouse HL-1 cells assessed as cell viability incubated for 24 hrs by CytoTox-Glo luminescence assay relative to control; format: toxicity, cell-based
# Histone deacetylase 2 = Histone deacetylase 2 (Homo sapiens, UniProt Q92769); experiment: Inhibition of human recombinant HDAC2
# Chain of Histone deacetylase 2 (Q92769 whole entry): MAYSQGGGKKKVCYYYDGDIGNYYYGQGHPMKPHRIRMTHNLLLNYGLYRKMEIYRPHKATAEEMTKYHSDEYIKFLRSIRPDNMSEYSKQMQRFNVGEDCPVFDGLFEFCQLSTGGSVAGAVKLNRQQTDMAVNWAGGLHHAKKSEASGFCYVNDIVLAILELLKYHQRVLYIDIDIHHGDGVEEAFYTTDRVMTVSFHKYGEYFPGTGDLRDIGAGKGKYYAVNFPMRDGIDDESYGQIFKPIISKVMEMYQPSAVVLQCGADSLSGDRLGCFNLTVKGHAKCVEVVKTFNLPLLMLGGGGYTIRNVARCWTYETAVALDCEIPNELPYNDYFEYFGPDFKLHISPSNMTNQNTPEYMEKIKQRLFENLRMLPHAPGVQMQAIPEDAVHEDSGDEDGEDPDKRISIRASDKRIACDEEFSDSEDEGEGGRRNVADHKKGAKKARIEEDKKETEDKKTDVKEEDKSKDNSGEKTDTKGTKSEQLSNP
# MCF7 [9] = experiment: Antiproliferative activity against human MCF7 cells assessed as reduction in cell viability incubated for 48 hrs by MTT assay; format: functional, cell-based; conditions: MCF7, 48 h
# Histone deacetylase 1 = Histone deacetylase 1 (Homo sapiens, UniProt Q13547); experiment: Inhibition of human recombinant HDAC1
# Chain of Histone deacetylase 1 (Q13547 whole entry): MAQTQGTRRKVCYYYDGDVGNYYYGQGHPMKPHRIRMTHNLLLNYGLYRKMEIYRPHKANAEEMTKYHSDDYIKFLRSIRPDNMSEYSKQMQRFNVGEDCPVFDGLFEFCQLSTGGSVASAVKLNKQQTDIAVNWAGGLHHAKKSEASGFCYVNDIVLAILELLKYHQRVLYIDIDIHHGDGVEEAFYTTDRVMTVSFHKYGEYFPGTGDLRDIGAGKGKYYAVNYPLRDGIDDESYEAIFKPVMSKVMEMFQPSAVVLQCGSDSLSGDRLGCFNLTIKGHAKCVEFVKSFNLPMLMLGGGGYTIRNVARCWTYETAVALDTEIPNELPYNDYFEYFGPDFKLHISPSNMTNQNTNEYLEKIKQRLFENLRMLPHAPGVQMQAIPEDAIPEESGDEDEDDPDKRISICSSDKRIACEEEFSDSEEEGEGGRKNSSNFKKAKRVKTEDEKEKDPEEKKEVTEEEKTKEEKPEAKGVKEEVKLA
# Histone deacetylase 3 = Histone deacetylase 3 (Homo sapiens, UniProt O15379); experiment: Inhibition of human recombinant HDAC3
# Chain of Histone deacetylase 3 (O15379 whole entry): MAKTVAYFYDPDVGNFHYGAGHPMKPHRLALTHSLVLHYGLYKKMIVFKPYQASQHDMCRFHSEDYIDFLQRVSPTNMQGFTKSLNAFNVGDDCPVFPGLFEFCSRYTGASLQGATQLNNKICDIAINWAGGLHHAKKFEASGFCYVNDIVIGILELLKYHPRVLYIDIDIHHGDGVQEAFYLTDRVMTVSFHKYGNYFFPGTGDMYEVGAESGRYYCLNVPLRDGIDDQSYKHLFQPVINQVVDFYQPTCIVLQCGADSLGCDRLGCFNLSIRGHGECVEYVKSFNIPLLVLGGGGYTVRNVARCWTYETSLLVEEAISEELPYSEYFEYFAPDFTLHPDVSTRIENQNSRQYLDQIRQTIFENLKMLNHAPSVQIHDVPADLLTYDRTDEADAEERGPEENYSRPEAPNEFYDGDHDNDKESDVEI
# HeLa = experiment: Antiproliferative activity against human HeLa cells assessed as reduction in cell viability measured after 3 to 4 days by MTT assay; format: functional, cell-based
# HepG2 = experiment: Antiproliferative activity against human HepG2 cells assessed as reduction in cell viability measured after 3 to 4 days by MTT assay; format: functional, cell-based
# [10] = Antiproliferative activity against human WI-38 cells assessed as reduction in cell growth measured after 3 to 4 days by MTT assay; format: toxicity, cell-based
# A549 [11] = experiment: Antiproliferative activity against human A549 cells assessed as reduction in cell viability measured after 3 to 4 days by MTT assay; format: functional, cell-based
# [12] = Antiproliferative activity against human Molt 4/C8 cells assessed as reduction in cell growth measured after 3 to 4 days by MTT assay; format: functional, cell-based; conditions: Molt4/C8
# MCF7 [13] = experiment: Antiproliferative activity against human MCF7 cells assessed as reduction in cell growth measured after 3 to 4 days by MTT assay; format: functional, cell-based
# L1210 = experiment: Antiproliferative activity against mouse L1210 cells assessed as reduction in cell viability measured after 3 to 4 days by MTT assay; format: functional, cell-based
# SW-620 = experiment: Antiproliferative activity against human SW-620 cells assessed as reduction in cell growth measured after 3 to 4 days by MTT assay; format: functional, cell-based
# CCRF-CEM = experiment: Antiproliferative activity against human CEM cells assessed as reduction in cell viability measured after 3 to 4 days by MTT assay; format: functional, cell-based
# [14] = system: Mycobacterium tuberculosis; experiment: Antimycobacterial activity against Mycobacterium tuberculosis H37Rv assessed as inhibition of bacterial growth by microplate alamar blue assay; format: functional
# Plasmodium falciparum = experiment: Antiplasmodial activity against chloroquine-sensitive Plasmodium falciparum NF54 assessed as reduction in parasite growth; format: functional, organism-based
# KG-1 [15] = experiment: Antiproliferative activity against human KG-1 cells assessed as reduction in cell viability incubated for 72 hrs by MTT assay; format: functional, cell-based; conditions: KG-1, 72 h
# [16] = target: Mitogen-activated protein kinase 6 (Homo sapiens, UniProt Q16659); experiment: Inhibition of ERK3 (unknown origin)
# Chain of Mitogen-activated protein kinase 6 (Q16659 whole entry): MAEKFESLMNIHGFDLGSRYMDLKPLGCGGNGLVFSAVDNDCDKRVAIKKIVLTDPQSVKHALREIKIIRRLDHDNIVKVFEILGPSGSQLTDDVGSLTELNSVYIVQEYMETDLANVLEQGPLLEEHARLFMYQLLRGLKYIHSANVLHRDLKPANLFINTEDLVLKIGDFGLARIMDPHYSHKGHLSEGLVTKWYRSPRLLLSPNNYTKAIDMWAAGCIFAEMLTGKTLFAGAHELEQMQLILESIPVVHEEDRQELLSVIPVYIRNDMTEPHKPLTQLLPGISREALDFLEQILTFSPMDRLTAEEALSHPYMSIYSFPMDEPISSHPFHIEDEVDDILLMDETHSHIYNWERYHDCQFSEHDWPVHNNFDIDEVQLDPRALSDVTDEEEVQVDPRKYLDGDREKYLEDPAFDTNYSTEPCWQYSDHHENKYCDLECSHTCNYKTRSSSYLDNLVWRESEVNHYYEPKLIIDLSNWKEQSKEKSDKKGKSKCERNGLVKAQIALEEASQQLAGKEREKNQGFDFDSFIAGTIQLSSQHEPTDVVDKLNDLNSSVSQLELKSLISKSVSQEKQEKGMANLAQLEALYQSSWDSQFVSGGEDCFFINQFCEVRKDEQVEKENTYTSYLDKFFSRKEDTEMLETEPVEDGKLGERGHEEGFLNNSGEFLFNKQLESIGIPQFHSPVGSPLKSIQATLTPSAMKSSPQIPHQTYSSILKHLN
# [17] = target: Mitogen-activated protein kinase 1 (Homo sapiens, UniProt P28482); experiment: Inhibition of ERK2 (unknown origin)
# Chain of Mitogen-activated protein kinase 1 (P28482 whole entry): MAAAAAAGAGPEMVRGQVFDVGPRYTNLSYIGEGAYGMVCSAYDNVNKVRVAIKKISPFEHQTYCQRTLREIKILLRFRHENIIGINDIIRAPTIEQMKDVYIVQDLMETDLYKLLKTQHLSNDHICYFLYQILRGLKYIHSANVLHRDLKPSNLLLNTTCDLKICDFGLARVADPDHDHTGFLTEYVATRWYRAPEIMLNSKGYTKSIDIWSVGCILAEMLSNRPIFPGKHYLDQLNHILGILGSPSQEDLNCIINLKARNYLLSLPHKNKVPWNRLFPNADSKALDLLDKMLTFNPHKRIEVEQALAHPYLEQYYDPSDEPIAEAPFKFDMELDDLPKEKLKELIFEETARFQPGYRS
# [18] = target: Mitogen-activated protein kinase 3 (Homo sapiens, UniProt P27361); experiment: Inhibition of ERK1 (unknown origin)
# Chain of Mitogen-activated protein kinase 3 (P27361 whole entry): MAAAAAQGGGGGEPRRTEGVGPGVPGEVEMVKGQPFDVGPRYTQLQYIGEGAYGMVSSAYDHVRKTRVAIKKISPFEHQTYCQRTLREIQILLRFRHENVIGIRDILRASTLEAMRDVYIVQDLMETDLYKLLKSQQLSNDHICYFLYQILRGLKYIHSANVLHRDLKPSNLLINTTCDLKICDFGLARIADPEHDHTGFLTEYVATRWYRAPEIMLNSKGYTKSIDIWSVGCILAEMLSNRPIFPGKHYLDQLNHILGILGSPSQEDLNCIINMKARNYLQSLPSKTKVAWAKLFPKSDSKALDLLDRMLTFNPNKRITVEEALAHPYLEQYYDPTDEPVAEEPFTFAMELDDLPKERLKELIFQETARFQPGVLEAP
# KG-1 [19] = experiment: Antiproliferative activity against FGFR1-translocated human KG-1 cells assessed as reduction in cell viability incubated for 72 hrs by CCK-8 assay; format: functional, cell-based; conditions: KG-1, 72 h
# [20] = target: Fibroblast growth factor receptor 1 (Homo sapiens, UniProt P11362); experiment: Inhibition of human recombinant FGFR1 (461 to 768 residues) expressed in Escherichia coli BL21 Gold(DE3) cells by spectrophotometer method
# Chain of Fibroblast growth factor receptor 1 (P11362 whole entry, the tested form may be a part): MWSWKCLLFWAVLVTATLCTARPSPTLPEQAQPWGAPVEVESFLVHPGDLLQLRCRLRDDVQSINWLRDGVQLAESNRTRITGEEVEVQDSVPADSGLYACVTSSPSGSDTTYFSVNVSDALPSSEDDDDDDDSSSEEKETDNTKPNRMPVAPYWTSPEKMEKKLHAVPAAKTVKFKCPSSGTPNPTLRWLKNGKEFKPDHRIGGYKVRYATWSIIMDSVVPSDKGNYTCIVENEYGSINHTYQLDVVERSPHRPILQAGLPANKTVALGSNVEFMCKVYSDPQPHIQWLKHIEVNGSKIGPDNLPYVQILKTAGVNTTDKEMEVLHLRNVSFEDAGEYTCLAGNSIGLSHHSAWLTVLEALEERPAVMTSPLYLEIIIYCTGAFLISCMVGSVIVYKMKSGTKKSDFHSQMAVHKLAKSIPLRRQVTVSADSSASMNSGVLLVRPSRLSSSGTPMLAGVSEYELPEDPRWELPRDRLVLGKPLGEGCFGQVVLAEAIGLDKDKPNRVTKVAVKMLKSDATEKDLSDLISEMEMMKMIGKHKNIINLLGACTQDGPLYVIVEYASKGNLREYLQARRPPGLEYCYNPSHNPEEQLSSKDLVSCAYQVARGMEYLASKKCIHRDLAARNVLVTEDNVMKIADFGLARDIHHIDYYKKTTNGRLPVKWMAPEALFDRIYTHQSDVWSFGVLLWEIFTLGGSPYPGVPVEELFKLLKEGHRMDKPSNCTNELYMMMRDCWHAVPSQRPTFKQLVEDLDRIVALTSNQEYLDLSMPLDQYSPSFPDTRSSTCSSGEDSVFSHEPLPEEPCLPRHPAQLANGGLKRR
# HCT-116 [21] = experiment: Antiproliferative activity against human HCT-116 cells assessed as inhibition of cell growth at 0.1 uM incubated for 24 hrs by SRB assay relative to control; format: functional; design: scale not given: the % may be the effect or the level left
# MDA-MB-231 [22] = experiment: Antiproliferative activity against human MDA-MB-231 cells assessed as inhibition of cell growth at 0.1 uM incubated for 24 hrs by SRB assay relative to control; format: functional; design: scale not given: the % may be the effect or the level left
# MCF7 [23] = experiment: Antiproliferative activity against human MCF7 cells assessed as inhibition of cell growth at 0.1 uM incubated for 24 hrs by SRB assay relative to control; format: functional; design: scale not given: the % may be the effect or the level left
# Human coronavirus 229E = experiment: Antiviral activity against Human coronavirus 229E cells assessed as inhibition of virus-induced cytopathic effect by crystal violet staining based analysis; format: functional, organism-based
structure (smiles),measurement,setting,value
c1cc2cc(-c3cnc4nc(-c5ccc6c(c5)OCCO6)cnc4c3)ccc2[nH]1,IC50,PC-9/ER,0.15 µM
same,IC50,PC-9,90 nM
COc1ccc(-c2cn3c(-c4ccc(OC)cc4)cnc3c(Oc3ccc4c(C)cc(=O)oc4c3)n2)cc1,Activity,SNB-75,85.69%
same,Activity,A549 [1],83.52%
same,Activity,PC-3,83.52%
same,Activity,LOX IMVI,91.98%
same,Activity,MDA-MB-231 [2],93.71%
C/C(=N\NC(=S)N1CCCCC1)c1cnccn1,IC50,MCF7 [3],3.82 µM
same,IC50 at 48 h,[4],> 60 µM
O=C(c1ccc(O)cc1)c1ncc(-c2ccc(O)cc2)nc1C(=O)c1ccc(O)cc1,IC50,[5],6.47 µM
c1ccc(CNc2c(-c3ccncc3)nc3cnccn23)cc1,IC50,MCF7 [6],6.66 µM
same,IC50,K562,6.66 µM
same,IC50,HCT-116 [7],6.66 µM
S=C(N/N=C(\c1ccccc1)c1ccccn1)Nc1ccccc1,IC50 at 24 h,[8],1430 nM
COc1cnc(C(=O)NCC2(C)CCCC3(C)c4ccc(C(C)C)cc4CCC23)cn1 (centres undefined),IC50,Histone deacetylase 2,280 nM
same,IC50,MCF7 [9],6.66 µM
same,IC50,Histone deacetylase 1,130 nM
same,IC50,Histone deacetylase 3,310 nM
O=C(Nc1ccc(Br)cc1)Nc1ccc(Oc2cnc(C(=O)NC3CCCC3)cn2)cc1,IC50,HeLa,600 nM
same,IC50,HepG2,700 nM
same,IC50,[10],> 100 µM
same,IC50,A549 [11],900 nM
same,IC50,[12],> 250 µM
same,IC50,MCF7 [13],> 250 µM
same,IC50,L1210,87 µM
same,IC50,SW-620,39.6 µM
same,IC50,CCRF-CEM,> 250 µM
O=C(NCCNc1ccnc2cc(Cl)ccc12)c1cnccn1,MIC99,[14],320 µM
same,IC50,Plasmodium falciparum,647 nM
O=S(=O)(c1cn(CCF)cn1)n1ccc2ncc(-c3cn[nH]c3)nc21,IC50,KG-1 [15],29.1 nM
CN1CCN([C@H]2C[C@@H](c3nc(-c4ccc5ccc(-c6ccccc6)nc5c4)c4c(N)nccn43)C2)CC1,IC50,[16],210 nM
same,IC50,[17],210 nM
same,IC50,[18],210 nM
COc1cc(OC)c(F)c(/C=C/c2cnc3c(n2)N(S(=O)(=O)c2cn(CCF)cn2)CC3)c1F,IC50,KG-1 [19],0.5 nM
same,IC50,[20],600 nM
Nc1nc(N2CCCC2CC2CCCC2CO)cnc1-c1cccc(Cl)c1Cl (centres undefined),Activity,HCT-116 [21],27%
same,Activity,MDA-MB-231 [22],32%
same,Activity,MCF7 [23],30%
c1cc(-c2nc3cnccn3c2NC2CCCCC2)ccn1,IC50,Human coronavirus 229E,57 µM
